Assay: xn = mol fraction of the nth substance listed
Conditions: Liquid

CCCCCCCl [1-chlorohexane] + CCCCCCCC
mass density [kg/m3]
Conditions | x2 = 0 | x2 = 0.1016 | x2 = 0.1996 | x2 = 0.3153 | x2 = 0.3948 | x2 = 0.4862 | x2 = 0.5938 | x2 = 0.6966 | x2 = 0.794 | x2 = 0.9001
308.15 K, 39620 kPa | – | – | – | – | – | – | – | – | – | 735.19
318.15 K, 100 kPa | 854.58 | 834.04 | 814.96 | 793.28 | 778.92 | 762.93 | 744.78 | 728.11 | 712.89 | 696.93
318.15 K, 2130 kPa | 856.27 | 835.95 | 816.81 | 795.21 | 780.76 | 764.83 | 746.83 | 730.05 | 714.94 | 698.9
318.15 K, 4150 kPa | 858.19 | 837.89 | 818.74 | 797.18 | 782.71 | 766.77 | 748.78 | 732.01 | 716.9 | 700.85
318.15 K, 6180 kPa | 860.06 | 839.78 | 820.64 | 799.07 | 784.6 | 768.67 | 750.71 | 733.92 | 718.79 | 702.75
318.15 K, 8210 kPa | 861.91 | 841.62 | 822.49 | 800.94 | 786.48 | 770.55 | 752.56 | 735.77 | 720.67 | 704.6
318.15 K, 10230 kPa | 863.73 | 843.46 | 824.34 | 802.79 | 788.32 | 772.38 | 754.41 | 737.61 | 722.49 | 706.41
318.15 K, 11250 kPa | 864.62 | 844.35 | 825.23 | 803.67 | 789.21 | 773.28 | 755.31 | 738.5 | 723.39 | 707.3
318.15 K, 12260 kPa | 865.5 | 845.27 | 826.11 | 804.57 | 790.11 | 774.2 | 756.2 | 739.4 | 724.3 | 708.21
318.15 K, 14290 kPa | 867.28 | 847.01 | 827.89 | 806.35 | 791.88 | 775.94 | 757.98 | 741.15 | 726.04 | 709.95
318.15 K, 16310 kPa | 869 | 848.75 | 829.61 | 808.09 | 793.61 | 777.66 | 759.69 | 742.89 | 727.75 | 711.66
318.15 K, 18340 kPa | 870.66 | 850.43 | 831.3 | 809.76 | 795.29 | 779.35 | 761.37 | 744.57 | 729.42 | 713.3
318.15 K, 20370 kPa | 872.33 | 852.13 | 832.97 | 811.43 | 796.96 | 781.01 | 763.03 | 746.2 | 731.08 | 714.96
318.15 K, 22390 kPa | 873.95 | 853.71 | 834.6 | 813.06 | 798.59 | 782.65 | 764.67 | 747.82 | 732.69 | 716.55
318.15 K, 24420 kPa | 875.54 | 855.32 | 836.2 | 814.65 | 800.17 | 784.23 | 766.24 | 749.39 | 734.25 | 718.09
318.15 K, 26450 kPa | 877.12 | 856.9 | 837.77 | 816.23 | 801.75 | 785.8 | 767.8 | 750.95 | 735.8 | 719.69
318.15 K, 28470 kPa | 878.67 | 858.45 | 839.34 | 817.78 | 803.29 | 787.34 | 769.34 | 752.48 | 737.32 | 721.17
318.15 K, 29490 kPa | 879.43 | 859.22 | 840.08 | 818.54 | 804.05 | 788.09 | 770.08 | 753.23 | 738.07 | 721.87
318.15 K, 30500 kPa | 880.19 | 859.99 | 840.84 | 819.31 | 804.81 | 788.85 | 770.85 | 753.99 | 738.83 | 722.64
318.15 K, 32530 kPa | 881.7 | 861.5 | 842.34 | 820.8 | 806.31 | 790.33 | 772.31 | 755.45 | 740.27 | 724.08
318.15 K, 34550 kPa | 883.17 | 862.97 | 843.8 | 822.26 | 807.75 | 791.8 | 773.76 | 756.87 | 741.69 | 725.5
318.15 K, 36580 kPa | 884.63 | 864.41 | 845.26 | 823.71 | 809.2 | 793.22 | 775.19 | 758.28 | 743.11 | 726.91
318.15 K, 38600 kPa | 886.04 | 865.86 | 846.68 | 825.13 | 810.6 | 794.61 | 776.59 | 759.68 | 744.49 | 728.26
318.15 K, 39620 kPa | 886.76 | 866.55 | 847.39 | 825.83 | 811.31 | 795.32 | 777.27 | 760.4 | 745.19 | 728.95
328.15 K, 100 kPa | 845.18 | 824.75 | – | 784.31 | 770.08 | 754.25 | 736.27 | 719.76 | 704.68 | 688.86
328.15 K, 2130 kPa | 847.12 | 826.75 | 807.96 | 786.36 | 772.17 | 756.35 | 738.33 | 721.87 | 706.7 | 690.84
328.15 K, 4150 kPa | 849.17 | 828.82 | 810.05 | 788.45 | 774.26 | 758.45 | 740.42 | 723.96 | 708.79 | 692.91
328.15 K, 6180 kPa | 851.16 | 830.83 | 812.05 | 790.48 | 776.28 | 760.49 | 742.45 | 725.98 | 710.81 | 694.93
328.15 K, 8210 kPa | 853.13 | 832.8 | 814.05 | 792.45 | 778.27 | 762.48 | 744.42 | 728 | 712.79 | 696.92
328.15 K, 10230 kPa | 855.02 | 834.72 | 815.97 | 794.38 | 780.21 | 764.41 | 746.38 | 729.93 | 714.74 | 698.84
328.15 K, 11250 kPa | 855.98 | 835.67 | 816.92 | 795.34 | 781.17 | 765.37 | 747.33 | 730.88 | 715.68 | 699.79
328.15 K, 12260 kPa | 856.91 | 836.61 | 817.87 | 796.3 | 782.13 | 766.33 | 748.28 | 731.81 | 716.64 | 700.74
328.15 K, 14290 kPa | 858.76 | 838.48 | 819.73 | 798.16 | 784 | 768.18 | 750.17 | 733.7 | 718.5 | 702.6
328.15 K, 16310 kPa | 860.59 | 840.3 | 821.56 | 799.99 | 785.83 | 770.03 | 752 | 735.52 | 720.32 | 704.39
328.15 K, 18340 kPa | 862.35 | 842.06 | 823.33 | 801.75 | 787.59 | 771.78 | 753.76 | 737.29 | 722.07 | 706.15
328.15 K, 20370 kPa | 864.12 | 843.84 | 825.11 | 803.54 | 789.37 | 773.56 | 755.51 | 739.04 | 723.83 | 707.88
328.15 K, 22390 kPa | 865.82 | 845.55 | 826.81 | 805.24 | 791.08 | 775.27 | 757.24 | 740.74 | 725.52 | 709.57
328.15 K, 24420 kPa | 867.51 | 847.24 | 828.51 | 806.94 | 792.78 | 776.96 | 758.91 | 742.4 | 727.18 | 711.21
328.15 K, 26450 kPa | 869.18 | 848.91 | 830.19 | 808.59 | 794.43 | 778.61 | 760.54 | 744.05 | 728.79 | 712.83
328.15 K, 28470 kPa | 870.8 | 850.52 | 831.8 | 810.22 | 796.05 | 780.22 | 762.15 | 745.64 | 730.38 | 714.38
328.15 K, 29490 kPa | 871.6 | 851.32 | 832.59 | 811.01 | 796.83 | 781.01 | 762.93 | 746.43 | 731.16 | 715.18
328.15 K, 30500 kPa | 872.4 | 852.13 | 833.4 | 811.81 | 797.63 | 781.8 | 763.73 | 747.21 | 731.95 | 715.96
328.15 K, 32530 kPa | 873.95 | 853.71 | 834.95 | 813.36 | 799.19 | 783.35 | 765.25 | 748.74 | 733.44 | 717.46
328.15 K, 34550 kPa | 875.49 | 855.25 | 836.5 | 814.87 | 800.71 | 784.87 | 766.77 | 750.23 | 734.96 | 718.95
328.15 K, 36580 kPa | 877.05 | 856.79 | 838.03 | 816.42 | 802.23 | 786.39 | 768.27 | 751.74 | 736.44 | 720.42
328.15 K, 38600 kPa | 878.53 | 858.28 | 839.51 | 817.9 | 803.7 | 787.85 | 769.73 | 753.2 | 737.86 | 721.85
328.15 K, 39620 kPa | 879.31 | 859.03 | 840.27 | 818.64 | 804.43 | 788.56 | 770.44 | 753.9 | 738.58 | 722.55

Reference: the NIST ThermoML archive (doi:10.1016/j.jct.2005.09.003)
